Values of other authors, collected in patent publication US20090280177A1, “Pharmaceutical preparation for treating fibromyalgia” (priority 2006, published 2009).

Tests used:
T cell-dependent antigen = settings: dose-dependent manner
[1] = tested on: T cell-independent antigen
T cells = settings: dose-dependent manner
[2] = tested on: peripheral blood-adhesive cells from chronic rheumatoid arthritis patients

For O=C(O)c1cc(/N=N/c2ccc(S(=O)(=O)Nc3ccccn3)cc2)ccc1O [salazosulfapyridine, 2-Hydroroxy-5-[4-(pyridine-2-ylsulfamoyl)phenylazo] benzoic acid], the “immune response to a T cell-dependent antigen” value (T cell-dependent antigen) is given as “suppressed”, the “immune response to a T cell-independent antigen” value [1] is given as “hardly suppressed” and the IL-2 production (T cells) is given as “suppress”. For the same compound, the “production of IL-1 and IL-6” value [2] was “suppress”.
